{
  "source": "patent US20120258922A1",
  "about": "“S[…] LOW-DENSITY L[…]” (Seminis Vegetable Seeds, Inc., priority 2011, published 2012)",
  "key": {"[1]": {"system": "human monocyte-derived macrophages (HMDM)", "experiment": "Macrophage-mediated LDL oxidation in HMDM (oxidized LDL by ELISA and/or TBARS)", "assay_type": "cell-based", "conditions": "for concentrations that significantly inhibit the oxidation of LDL: agent alone, 100 μg/ml LDL, p<0.01 compared to LDL control (FIG. 1, FIG. 2); for concentrations that significantly inhibit the oxidation of LDL / maximum inhibition of LDL oxidation: HMDM; for maximum inhibition of LDL oxidation: each agent individually, dose-dependent, compared to the LDL control, 100 μg/ml LDL (FIG. 1, FIG. 2); for IC50: α-tocopherol alone", "method": "Raw broccoli extracts (“BE” or “B. Extract”) were prepared from four hybrids. […] 50 grams of extract were mixed with equal parts 50mM MES buffer pH 6.0 solution. Samples were blended for approximately 1 minute until homogeneous then maintained at room temperature for 10 min. Filtrates from samples were diluted 1:40 with 50 mM MES buffer for the assay. […] Assays with the broccoli extracts were performed as described above."}, "[2]": {"system": "human monocyte-derived macrophages (HMDM)", "conditions": "each agent individually, at lower doses; LDL-depleted HMDM (FIGS. 8, 9)", "source_text": "(§1) Blood was drawn and collected from healthy human volunteers, and LDL was isolated by density gradient centrifugation following methods known to one of ordinary skill in the art (e.g., Napolitano et al., Int J Biochem Cell Biol, 35:1127-43, 2002). Monocytes were also isolated from the blood and separated by Ficoll Hypaque centrifugation also according to known methods (e.g., Napolitano et al., Eur J Clin Invest, 35:482-90, 2005), followed by negative magnetic separation and maintained in culture with 20% autologous serum or F-10 medium for 5-7 days to differentiate into human monocyte-derived macrophages (HMDM). […] Following the pre-incubation step, LDL (100 μg/ml) was added and the cells were incubated for 24 hours. Supernatants were used for assessing oxidized LDL by ELISA (Mercodia) and/or TBARS (“Thiobarbituric Acid Reactive Substances”) as described previously (Devaraj et al., J Clin Invest 98:756, 1996). To assess the glutathione:glutathione disulfide (GSH:GSSG) ratio as an indicator of the redox poise of the cell, cells were dislodged by PBS-EDTA and were lysed (Pierce MPER) after a freeze-thaw cycle. After sonication and centrifugation, the cell pellet was stored at −80° C. until the relative levels of GSH and GSSG were assayed (Oxis Biochemicals). […]"}, "[3]": {"system": "quinone reductase", "conditions": "for QUINONE REDUCTASE ACTIVITY, Expt. 1 / QUINONE REDUCTASE ACTIVITY, Expt. 2 / QUINONE REDUCTASE ACTIVITY, Expt. 3 / QUINONE REDUCTASE ACTIVITY, Average: HMDM + LDL; for QUINONE REDUCTASE ACTIVITY, Average: average of Expt. 1-3; for quinone reductase activity (in words): each agent individually, LDL-treated HMDM (Table 1, FIGS. 10A,B)", "source_text": "Blood was drawn and collected from healthy human volunteers, and LDL was isolated by density gradient centrifugation following methods known to one of ordinary skill in the art (e.g., Napolitano et al., Int J Biochem Cell Biol, 35:1127-43, 2002). Monocytes were also isolated from the blood and separated by Ficoll Hypaque centrifugation also according to known methods (e.g., Napolitano et al., Eur J Clin Invest, 35:482-90, 2005), followed by negative magnetic separation and maintained in culture with 20% autologous serum or F-10 medium for 5-7 days to differentiate into human monocyte-derived macrophages (HMDM). […] Following the pre-incubation step, LDL (100 μg/ml) was added and the cells were incubated for 24 hours. Supernatants were used for assessing oxidized LDL by ELISA (Mercodia) and/or TBARS (“Thiobarbituric Acid Reactive Substances”) as described previously (Devaraj et al., J Clin Invest 98:756, 1996). To assess the glutathione:glutathione disulfide (GSH:GSSG) ratio as an indicator of the redox poise of the cell, cells were dislodged by PBS-EDTA and were lysed (Pierce MPER) after a freeze-thaw cycle. After sonication and centrifugation, the cell pellet was stored at −80° C. until the relative levels of GSH and GSSG were assayed (Oxis Biochemicals). Quinone reductase activity was assayed following the method described previously (J. Fahey et al., Methods in Enzymology 382, 243-258, 2004)."}, "[4]": {"system": "NQO1", "experiment": "Inhibition of LDL oxidation in HMDM with SiNQO1 silencing", "conditions": "100 μg/ml LDL (FIG. 12)", "source_text": "as §1"}},
  "note": "Read-outs that look alike come from different tables or passages of the source.",
  "data": [
    {"smiles": "C[S+]([O-])CCCCN=C=S", "note": "(stereo not drawn) [sulforaphane]", "values": [
      {"measurement": "effect on LDL oxidation", "setting": "[1]; 2 μM sulforaphane individually applied (FIG. 11)", "result": "reduced LDL oxidation"},
      {"measurement": "concentrations that significantly inhibit the oxidation of LDL", "setting": "[1]", "result": "greater than 2 μM"},
      {"measurement": "maximum inhibition of LDL oxidation", "setting": "[1]", "result": 58, "unit": "%"},
      {"measurement": "GSH:GSSG ratio", "setting": "[2]", "result": "restored the ratio to normal levels"},
      {"measurement": "QUINONE REDUCTASE ACTIVITY, Expt. 1", "setting": "[3]; 2 μM sulforaphane", "result": 151.23, "unit": "nmol/min/mg protein"},
      {"measurement": "QUINONE REDUCTASE ACTIVITY, Expt. 2", "setting": "[3]; 2 μM sulforaphane", "result": 124.23, "unit": "nmol/min/mg protein"},
      {"measurement": "QUINONE REDUCTASE ACTIVITY, Expt. 3", "setting": "[3]; 2 μM sulforaphane", "result": 104.56, "unit": "nmol/min/mg protein"},
      {"measurement": "QUINONE REDUCTASE ACTIVITY, Average", "setting": "[3]; 2 μM sulforaphane", "result": 126.6733, "unit": "nmol/min/mg protein"},
      {"measurement": "quinone reductase activity (in words)", "setting": "[3]", "result": "restored enzymatic activity to normal levels"}
    ]},
    {"smiles": "Cc1c(C)c2c(c(C)c1O)CC[C@@](C)(CCC[C@H](C)CCC[C@H](C)CCCC(C)C)O2", "note": "[α-tocopherol]", "values": [
      {"measurement": "effect on LDL oxidation", "setting": "[1]; 25 μM α-tocopherol individually applied (FIG. 11)", "result": "reduced LDL oxidation"},
      {"measurement": "concentrations that significantly inhibit the oxidation of LDL", "setting": "[1]", "result": "greater than 12.5 μM"},
      {"measurement": "maximum inhibition of LDL oxidation", "setting": "[1]", "result": 58, "unit": "%"},
      {"measurement": "IC50", "setting": "[1]; FIG. 5 experiment", "result": 53.1, "unit": "µM"},
      {"measurement": "IC50", "setting": "[1]; FIG. 7 experiment", "result": 23.6, "unit": "µM"},
      {"measurement": "GSH:GSSG ratio", "setting": "[2]", "result": "restored the ratio to normal levels"},
      {"measurement": "QUINONE REDUCTASE ACTIVITY, Expt. 1", "setting": "[3]; 6.25 μM α-tocopherol", "result": 59.87, "unit": "nmol/min/mg protein"},
      {"measurement": "QUINONE REDUCTASE ACTIVITY, Expt. 2", "setting": "[3]; 6.25 μM α-tocopherol", "result": 68.97, "unit": "nmol/min/mg protein"},
      {"measurement": "QUINONE REDUCTASE ACTIVITY, Expt. 3", "setting": "[3]; 6.25 μM α-tocopherol", "result": 41.12, "unit": "nmol/min/mg protein"},
      {"measurement": "QUINONE REDUCTASE ACTIVITY, Average", "setting": "[3]; 6.25 μM α-tocopherol", "result": 56.65, "unit": "nmol/min/mg protein"},
      {"measurement": "QUINONE REDUCTASE ACTIVITY, Expt. 1", "setting": "[3]; 12.5 μM α-tocopherol", "result": 66.45, "unit": "nmol/min/mg protein"},
      {"measurement": "QUINONE REDUCTASE ACTIVITY, Expt. 2", "setting": "[3]; 12.5 μM α-tocopherol", "result": 69.47, "unit": "nmol/min/mg protein"},
      {"measurement": "QUINONE REDUCTASE ACTIVITY, Expt. 3", "setting": "[3]; 12.5 μM α-tocopherol", "result": 42.25, "unit": "nmol/min/mg protein"},
      {"measurement": "QUINONE REDUCTASE ACTIVITY, Average", "setting": "[3]; 12.5 μM α-tocopherol", "result": 59.39, "unit": "nmol/min/mg protein"},
      {"measurement": "QUINONE REDUCTASE ACTIVITY, Expt. 1", "setting": "[3]; 25 μM α-tocopherol", "result": 68.98, "unit": "nmol/min/mg protein"},
      {"measurement": "QUINONE REDUCTASE ACTIVITY, Expt. 2", "setting": "[3]; 25 μM α-tocopherol", "result": 64.56, "unit": "nmol/min/mg protein"},
      {"measurement": "QUINONE REDUCTASE ACTIVITY, Expt. 3", "setting": "[3]; 25 μM α-tocopherol", "result": 65.14, "unit": "nmol/min/mg protein"},
      {"measurement": "QUINONE REDUCTASE ACTIVITY, Average", "setting": "[3]; 25 μM α-tocopherol", "result": 66.23, "unit": "nmol/min/mg protein"},
      {"measurement": "QUINONE REDUCTASE ACTIVITY, Expt. 1", "setting": "[3]; 50 μM α-tocopherol", "result": 77.14, "unit": "nmol/min/mg protein"},
      {"measurement": "QUINONE REDUCTASE ACTIVITY, Expt. 2", "setting": "[3]; 50 μM α-tocopherol", "result": 74.19, "unit": "nmol/min/mg protein"},
      {"measurement": "QUINONE REDUCTASE ACTIVITY, Expt. 3", "setting": "[3]; 50 μM α-tocopherol", "result": 66.23, "unit": "nmol/min/mg protein"},
      {"measurement": "QUINONE REDUCTASE ACTIVITY, Average", "setting": "[3]; 50 μM α-tocopherol", "result": 72.52, "unit": "nmol/min/mg protein"},
      {"measurement": "quinone reductase activity (in words)", "setting": "[3]", "result": "only a modest effect"},
      {"measurement": "effectiveness at inhibiting LDL oxidation after NQO1 silencing", "setting": "[4]", "result": "reduced but not complete reduction of the effectiveness"}
    ]}
  ]
}
